Patent US11576922B2, “CD73 inhibitors” (ORIC Pharmaceuticals, Inc., priority 2017, dated 2023)
“And” between values parts separate entries of the source, which are not always exact repeats. Identical values can stand only once.

biological target: T1, CD73 (Homo sapiens, UniProt P21589); experiment: Example A1: Biochemical Assay (CD73 inhibition, Malachite Green detection of AMP hydrolysis); conditions: CD73 0.3208 nM, AMP 15 μM, Tris-HCl pH 7.4, Malachite Green, absorbance 620 nm; read-out: Biochemical IC50
T1 sequence (P21589 27-549): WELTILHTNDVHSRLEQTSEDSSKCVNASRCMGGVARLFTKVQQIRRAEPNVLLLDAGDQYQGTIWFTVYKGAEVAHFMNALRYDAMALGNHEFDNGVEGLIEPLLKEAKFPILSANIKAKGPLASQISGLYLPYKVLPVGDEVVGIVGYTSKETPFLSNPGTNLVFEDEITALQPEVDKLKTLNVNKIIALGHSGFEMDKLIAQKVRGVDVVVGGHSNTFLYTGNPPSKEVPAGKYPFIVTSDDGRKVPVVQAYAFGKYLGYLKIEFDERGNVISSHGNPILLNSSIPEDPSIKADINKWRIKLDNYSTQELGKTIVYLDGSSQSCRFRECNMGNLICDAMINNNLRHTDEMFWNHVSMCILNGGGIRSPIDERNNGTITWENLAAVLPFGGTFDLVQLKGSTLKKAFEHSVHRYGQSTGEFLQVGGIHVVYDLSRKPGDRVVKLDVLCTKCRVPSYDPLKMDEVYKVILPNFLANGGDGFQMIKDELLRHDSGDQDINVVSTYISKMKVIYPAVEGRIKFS
Experimental: Example A1: Biochemical Assay
Assay Reaction Conditions
• Assay Volume: 70 μl • Reaction Volume: 50 μl • CD73: 0.3208 nM • AMP: 15 μM • Assay Buffer: 2 5 mM Tris-HCL, pH 7.4, 0.01% Brij-35, 0.01% BSA, 5 mM MgCl2 Assay Procedure:
Made dose titration of testing compounds in assay buffer, 10 points ½ log titrations in duplicates starting at 100 μM.
Added 25 μl of CD73 to each well for a final concentration of […].
Incubated at RT for 15 min.
Added 25 μl of AMP to each well for a final concentration of 15 μM.
Incubated at RT for 10 min.
Added 10 μl of Malachite Green Reagent A, incubate at RT for 10 min.
Added 10 μl of Malachite Green Reagent B, incubate at RT for 45 min.
Read the Absorbance on Envision plate reader using excitation filter: Cy5 […].
The ability of the compounds disclosed herein to inhibit CD73 activity was quantified and the respective IC50 values were determined. Table 1 provides the biochemical IC50 values of compounds disclosed herein.

Row | Structure (SMILES) | IC50
1 | O=P(O)(O)CP(=O)(O)OC[C@H]1OC(n2nnc3c(NC4CCc5ccccc54)nc(Cl)nc32)[C@H](O)[C@@H]1O (stereo in doubt) [Example 31, (((((2R,3S,4R,5S)-5-(5-chloro-7-(((R)-2,3-dihydro-1H-inden-1-yl)amino)-3H-[1,2,3]triazolo[4,5-d]pyrimidin-3-yl)-3,4-dihydroxytetrahydrofuran-2-yl)methoxy)(hydroxy)phosphoryl)methyl) phosphonic acid] | < 0.1 µM
2 | O=P(O)(O)CP(=O)(O)OC[C@H]1CC(n2nnc3c(NC4CCc5ccccc54)nc(Cl)nc32)[C@H](O)[C@@H]1O (stereo in doubt) [Example 35, (((((1R,2R,3S,4S)-4-(5-chloro-7-(((S)-2,3-dihydro-1H-inden-1-yl)amino)-3H-[1,2,3]triazolo[4,5-d]pyrimidin-3-yl)-2,3-dihydroxycyclopentyl)methoxy) (hydroxy)phosphoryl)methyl)phosphonic acid] | < 0.1 µM and 0.1 to 1 µM
3 | O=P(O)(O)CP(=O)(O)OC[C@H]1C[C@@H](n2nnc3c(NCc4ccccc4Cl)nc(Cl)nc32)[C@H](O)[C@@H]1O [Example 2, (((((1R,2R,3S,4R)-4-(5-chloro-7-((2-chlorobenzyl)amino)-3H-[1,2,3]triazolo[4,5-d]pyrimidin-3-yl)-2,3-dihydroxycyclopentyl)methoxy)(hydroxy)phosphoryl)methyl)phosphonic acid] | 0.1 to 1 µM
4 | Nc1nc(Cl)nc2c1nnn2[C@@H]1O[C@H](COP(=O)(O)CP(=O)(O)O)[C@@H](O)[C@H]1O [Example 4, (((((2R,3S,4R,5R)-5-(7-amino-5-chloro-3H-[1,2,3]triazolo[4,5-d]pyrimidin-3-yl)-3,4-dihydroxytetrahydrofuran-2-yl)methoxy)(hydroxy)phosphoryl)methyl) phosphonic acid] | > 1 µM

Other lines, results leading:

Row | IC50 | Structure (SMILES)
5 | 0.1 to 1 µM | O=P(O)(O)CP(=O)(O)OC[C@H]1O[C@@H](n2nnc3c(NCc4ccccc4)nc(Cl)nc32)[C@H](O)[C@@H]1O [Example 1, (((((2R,3S,4R,5R)-5-(7-(Benzylamino)-5-chloro-3H-[1,2,3]triazolo[4,5-d]pyrimidin-3-yl)-3,4-dihydroxytetrahydrofuran-2-yl)methoxy)(hydroxy)phosphoryl)methyl)phosphonic acid]
6 | 0.1 to 1 µM | O=P(O)(O)CP(=O)(O)OC[C@H]1O[C@@H](n2nnc3c(NC[C@H]4CCOC4)nc(Cl)nc32)[C@H](O)[C@@H]1O [Example 3, (((((2R,3S,4R,5R)-5-(5-chloro-7-((((R)-tetrahydrofuran-3-yl)methyl)amino)-3H-[1,2,3]triazolo[4,5-d]pyrimidin-3-yl)-3,4-dihydroxytetrahydrofuran-2-yl)methoxy)(hydroxy)phosphoryl)methyl) phosphonic acid]
7 | 0.1 to 1 µM | O=P(O)(O)CP(=O)(O)OC[C@H]1O[C@@H](n2nnc3c(NCC4CC4)nc(Cl)nc32)[C@H](O)[C@@H]1O [Example 5, (((((2R,3S,4R,5R)-5-(5-chloro-7-((cyclopropylmethyl)amino)-3H-[1,2,3]triazolo[4,5-d]pyrimidin-3-yl)-3,4-dihydroxytetrahydrofuran-2-yl)methoxy)(hydroxy)phosphoryl)methyl) phosphonic acid]
8 | < 0.1 µM | O=P(O)(O)CP(=O)(O)OC[C@H]1O[C@@H](n2nnc3c(NCc4ccccc4Cl)nc(Cl)nc32)[C@H](O)[C@@H]1O [Example 6, (((((2R,3S,4R,5R)-5-(5-chloro-7-((2-chlorobenzyl)amino)-3H-[1,2,3]triazolo[4,5-d]pyrimidin-3-yl)-3,4-dihydroxytetrahydrofuran-2-yl)methoxy)(hydroxy)phosphoryl)methyl) phosphonic acid]
9 | < 0.1 µM | O=P(O)(O)CP(=O)(O)OC[C@H]1O[C@@H](n2nnc3c(NCc4ccc(Cl)cc4)nc(Cl)nc32)[C@H](O)[C@@H]1O [Example 7, (((((2R,3S,4R,5R)-5-(5-chloro-7-((4-chlorobenzyl)amino)-3H-[1,2,3]triazolo[4,5-d]pyrimidin-3-yl)-3,4-dihydroxytetrahydrofuran-2-yl)methoxy)(hydroxy)phosphoryl)methyl) phosphonic acid]
